The numbers were not newly measured in US11858905B1, “Cathepsin L inhibitors” (priority 2023, dated 2024), which cites them from elsewhere.

The data set has as its system RSV. The conditions noted are these: RSV infected mice; cited from earlier work.

As to `CC(C)C[C@H](NC(=O)[C@H]1O[C@@H]1C(=O)O)C(=O)NCCCCN=C(N)N` [Compound E64, E64], the airway hyperresponsiveness entry was “prevented airway hyperresponsiveness” and the viral clearance entry was “enhanced viral clearance”.
For the compound `NC(=O)c1ncn([C@@H]2O[C@H](CO)[C@@H](O)[C@H]2O)n1` [ribavirin], the airway hyperresponsiveness entry is listed as “prevented airway hyperresponsiveness” and the viral clearance entry is recorded as “enhanced viral clearance”.
